In ChEMBL document CHEMBL1955843, “Novel hepatitis C virus replicon inhibitors: synthesis and structure-activity relationships of fused pyrimidine derivatives” (Bioorg Med Chem Lett, 2012):

Key:
Hepatitis C virus [1] = test: Antiviral activity against Hepatitis C virus subtype 1a infected in HuH7 cells assessed as inhibition of viral replication by RT-PCR analysis in the presence of fetal calf serum; type: functional, organism-based, Hepacivirus hominis; settings: Huh-7
[2] = Cytotoxicity against human HuH7 cells by MTT assay; type: cell-based, Huh-7; settings: read-out: TD50 (the source's name)
Hepatitis C virus [3] = test: Antiviral activity against Hepatitis C virus subtype 1b infected in HuH7 cells assessed as inhibition of viral replication by RT-PCR analysis in the presence of fetal calf serum; type: functional, organism-based, Hepacivirus hominis; settings: genotype 1b, Huh-7
[4] = Ratio of EC50 for HCV subtype 1a to EC50 for HCV subtype 1b; type: functional
Rattus norvegicus [5] = test: AUC in rat plasma at 2.5 mg/kg, po; type: ADME, organism-based; design: dose 2.5 mg/kg, route oral; settings: in vivo
[6] = Half life in rat at 2.5 mg/kg, po and 2.5 mg/kg, iv; type: ADME, organism-based; settings: in vivo
Rattus norvegicus [7] = test: Clearance in rat at 2.5 mg/kg, po and 2.5 mg/kg, iv; type: ADME, organism-based; settings: in vivo
Hepatitis C virus [8] = test: Antiviral activity against Hepatitis C virus subtype 1b infected in HuH7 cells assessed as inhibition of viral replication by RT-PCR analysis in the presence of human serum; type: functional, organism-based, Hepacivirus hominis; settings: genotype 1b, Huh-7
[9] = Cmax in rat at 2.5 mg/kg, po; type: ADME, organism-based; design: dose 2.5 mg/kg, route oral; settings: in vivo
Rattus norvegicus [10] = test: Oral bioavailability in rat at 2.5 mg/kg; type: ADME, organism-based; settings: in vivo

Compound | EC50 (Hepatitis C virus [1]) | CC50 [2] | EC50 (Hepatitis C virus [3]) | further results
Cc1ccc(Sc2ccc(NS(C)(=O)=O)cc2)c(Nc2ncnc3nc(C(C)C)ccc23)c1 | 18.9 µM | > 50 µM | 11.2 µM | –
Cc1ccc(Sc2ccc(F)cc2)c(Nc2ncnc3nc(C)ccc23)c1 | 10.5 µM | 6.1 µM | 3 µM | –
Cc1ccc(Sc2ccc(O)cc2)c(Nc2ncnc3nc(N(C)C)ncc23)c1 | > 50 µM | > 50 µM | > 50 µM | –
CC(=O)Nc1ccc(Sc2ccc(C)cc2Nc2ncnc3nc(C)ccc23)cc1 | > 50 µM | > 50 µM | > 50 µM | –
COc1ccc(Sc2ccc(C)cc2Nc2ncnc3nc(C)ccc23)cc1 | 44.5 µM | 28.6 µM | 13.3 µM | –
Cc1ccc(Sc2ccc(O)cc2)c(Nc2ncnc3nc(C(C)(C)C)ccc23)c1 | 4.6 µM | 7.1 µM | 0.47 µM | –
CC(=O)Nc1ccc(Sc2ccc(C)cc2Nc2ncnc3nc(CC(C)C)ccc23)cc1 | 27.4 µM | 38.5 µM | 3.3 µM | –
Cc1ccc(Sc2ccc(O)cc2)c(Nc2ncnc3nc(CC(C)C)ccc23)c1 | 14.3 µM | 11.2 µM | 2.4 µM | –
Cc1ccc(Sc2ccc(O)cc2)c(Nc2ncnc3nc(C4CC4)ccc23)c1 | 10.5 µM | 17.4 µM | 1.6 µM | –
Cc1ccc(Sc2ccc(O)cc2)c(Nc2ncnc3nc(C4CCC4)ccc23)c1 | 11.3 µM | 31.8 µM | 3.1 µM | –
COc1ncc2c(Nc3cc(C)ccc3Sc3ccc(O)cc3)ncnc2n1 | > 8 µM | > 8 µM | > 8 µM | –
CC(=O)Nc1ccc(Sc2ccc(C)cc2Nc2ncnc3nc(C4CCC4)ccc23)cc1 | 15.8 µM | 49.2 µM | 3.7 µM | –
Cc1ccc(Sc2ccc(O)cc2)c(Nc2ncnc3nc(C4CCCCC4)ccc23)c1 | 2.7 µM | > 3.12 µM | 0.88 µM | –
Cc1ccc(Sc2ccc(O)cc2)c(Nc2ncnc3nc(C)ccc23)c1 | 23.4 µM | > 100 µM | 0.05 µM | –
CCc1ccc2c(Nc3cc(C)ccc3Sc3ccccc3)ncnc2n1 | 18.9 µM | 22.7 µM | 3.4 µM | –
CCNc1ncc2c(Nc3cc(C)ccc3Sc3ccc(O)cc3)ncnc2n1 | 47.6 µM | > 50 µM | 30 µM | –
CCOc1ncc2c(Nc3cc(C)ccc3Sc3ccc(O)cc3)ncnc2n1 | 7.3 µM | 29.7 µM | 12 µM | –
Cc1ccc(Sc2ccc(O)cc2)c(Nc2ncnc3nc(N4CCOCC4)ncc23)c1 | 14.1 µM | > 50 µM | 7.3 µM | –
Cc1ccc(Sc2ccccc2)c(Nc2cccc3nc(C)ccc23)c1 | 15.7 µM | 15.9 µM | 9.9 µM | –
Cc1ccc(Sc2ccccc2)c(Nc2ncnc3nc(C4CCC4)ccc23)c1 | 6.1 µM | 3.6 µM | 1.6 µM | –

Compound | EC50 (Hepatitis C virus [1]) | CC50 [2] | EC50 (Hepatitis C virus [3]) | further results
Cc1ccc(Sc2ccccc2)c(Nc2ccnc3cc(C)ccc23)c1 | – | 2.6 µM | 1.8 µM | –
CCSc1ncc2c(Nc3cc(C)ccc3Sc3ccc(O)cc3)ncnc2n1 | 4.8 µM | 46.9 µM | 0.01 µM | –
CCc1ccc2c(Nc3cc(C)ccc3Sc3ccc(O)cc3)ncnc2n1 | 62.2 µM | 78 µM | 10 µM | –
Cc1ccc(Sc2ccccc2)c(Nc2ncnc3nc(C(C)C)ccc23)c1 | 10.3 µM | 8 µM | 3.4 µM | –
COc1ccc(Sc2ccc(C)cc2Nc2ncnc3nc(C(C)C)ccc23)cc1 | 11.4 µM | 8.8 µM | 1.7 µM | –
Cc1ccc(Sc2ccc(O)cc2)c(Nc2ncnc3nc(Oc4ccccc4)ncc23)c1 | 5.3 µM | 17.1 µM | 3.5 µM | –
CCCc1ccc2c(Nc3cc(C)ccc3Sc3ccccc3)ncnc2n1 | 9.5 µM | 11.8 µM | 0.32 µM | –
Cc1ccc(Sc2ccccc2)c(Nc2ncnc3nc(CC(C)C)ccc23)c1 | 13.3 µM | 7.5 µM | 1 µM | –
Cc1ccc(Sc2ccccc2)c(Nc2ncnc3nc(C)ccc23)c1 | 13.3 µM | 22.2 µM | 3.84 µM | –
CCCc1ccc2c(Nc3cc(C)ccc3Sc3ccc(O)cc3)ncnc2n1 | 7.1 µM | 31.1 µM | 0.25 µM | –
Cc1ccc(Sc2ccc(F)cc2)c(Nc2ncnc3nc(C(C)C)ccc23)c1 | 3.2 µM | 4.8 µM | 1.8 µM | –
Cc1ccc(Sc2ccccc2)c(Nc2ccnc3nc(C)ccc23)c1 | 1.8 µM | 8.6 µM | 0.018 µM | Ratio EC50 [4]: 100
CC(=O)Nc1ccc(Sc2ccc(C)cc2Nc2ncnc3nc(C4CC4)ccc23)cc1 | 15.2 µM | 29.8 µM | 1.7 µM | –
CC(=O)Nc1ccc(Sc2ccc(C)cc2Nc2ncnc3nc(C(C)C)ccc23)cc1 | 2.6 µM | 28.8 µM | 13.8 µM | –
CCCc1ccc2c(Nc3cc(C)ccc3Sc3ccc(NC(C)=O)cc3)ncnc2n1 | 13.8 µM | > 25 µM | 0.63 µM | –
Cc1ccc(Sc2ccc(O)cc2)c(Nc2ncnc3nc(N4CCCCC4)ncc23)c1 | 22 µM | > 50 µM | 2.8 µM | –
CCc1ccc2c(Nc3cc(C)ccc3Sc3ccc(NC(C)=O)cc3)ncnc2n1 | > 12.5 µM | > 12.5 µM | 6.9 µM | –
Cc1ccc(Sc2ccccc2)c(Nc2ncnc3nc(C4CC4)ccc23)c1 | 10.4 µM | 9.9 µM | 3.7 µM | –
Cc1ccc(Sc2ccc(O)cc2)c(Nc2ncnc3nc(C(C)C)ccc23)c1 | 0.17 µM | 22.9 µM | 0.016 µM | AUC (Rattus norvegicus [5]): 1580 ng·h/mL; half-life [6]: 3.1 h; CL (Rattus norvegicus [7]): 26.3 mL/min/kg; EC50 (Hepatitis C virus [8]): 0.17 µM; Cmax [9]: 70 nM; F (Rattus norvegicus [10]): 10%
